The subject of experiment [1] is HUVEC. The experiment can be described thus: Antiangiogenic activity in human HUVEC cells assessed as angiogenesis rate at 10 uM after 5 hrs by endothelial tube formation assay relative to control. The class given is functional.
Experiment [2] can be described thus: Cytotoxicity against mouse SVEC4-10 cells assessed as cell viability after 24 hrs by MTS assay. The class given is cell-based. The settings on record: SVEC4-10, 24 h.
The subject of experiment [3] is Thoracic aorta. The experiment can be described thus: Antiangiogenic activity in Fischer 344 rat thoracic aorta assessed as field of view occupancy at 10 microg/ml after 5 days light microscopic analysis(reference value: 86 %). The class given is functional.
Experiment [4] relates to Thoracic aorta. Put plainly: Antiangiogenic activity in Fischer 344 rat thoracic aorta assessed as field of view occupancy at 1 microg/ml after 5 days by light microscopic analysis (reference value: 86 %). The class given is functional.
Experiment [5] has as its system HUVEC. The experiment can be described thus: Antiangiogenic activity in human HUVEC cells assessed as angiogenesis rate at 1 uM after 5 hrs by endothelial tube formation assay relative to control. It is filed as functional.

Calls of active or inactive are those of the source. The calls are words filed in the database; no cut-off is given here.

As to `Cc1cc(C)n2c1C=C(c1ccc(F)cc1)C2=O`, the outcome with HUVEC [1] was inactive.
Same read-out and setting: next, `Cc1cc(C)n2c1C=C(c1ccc(Cl)cc1)C2=O`: “inactive”.
In the case of `CCN(CC)CCNC(=O)c1c(C)[nH]c(/C=C2\C(=O)Nc3ccc(F)cc32)c1C` [SUNITINIB], in experiment [2], the concentration for half-maximal inhibition (IC50) is 8 µM. The result in the experiment with HUVEC [1] was Active.
Take `Cc1cc(C)n2c1C=C(c1cccc(Cl)c1)C2=O`: the outcome in the experiment with HUVEC [1] was inactive.
Still for that read-out and setting: in the case of `Cc1cc(C)n2c1C=C(c1ccccc1Cl)C2=O` it was “inactive”; in that of `Cc1ccc(C2=Cc3c(C)cc(C)n3C2=O)cc1`, “inactive”.
Regarding `Cc1cc(C)n2c1C=C(c1ccc(Br)cc1)C2=O`, in the experiment with HUVEC [1], the outcome was inactive.
Regarding `Cc1cc(C)n2c1C=C(c1ccccc1)C2=O`, the outcome in the experiment with Thoracic aorta [3] was Active. Moreover, the Activity in the experiment on HUVEC [1] came out at 68.4%.
With `Cc1cc(C)n2c1C=C(c1cccc([N+](=O)[O-])c1)C2=O`, the outcome in the experiment with HUVEC [1] was inactive.
Consider `COc1ccccc1C1=Cc2c(C)cc(C)n2C1=O`, for which the outcome in the experiment on HUVEC [1] was Active.
As to `Cc1cccc(C2=Cc3c(C)cc(C)n3C2=O)c1`, in the experiment on HUVEC [1], the result was inactive.
On the same count and under the same terms, in the case of `Cc1cc(C)n2c1C=C(c1ccccc1Br)C2=O` it was “Active”; in that of `COc1cccc(C2=Cc3c(C)cc(C)n3C2=O)c1`, “inactive”; in that of `Cc1cc(C)n2c1C=C(c1cccc(F)c1)C2=O`, “inactive”.
In the case of `Cc1cc(C)n2c1C=C(c1ccc([N+](=O)[O-])cc1)C2=O`, in the experiment on HUVEC [1], the result was inactive.
`Cc1cc(C)c(/C=C2\C(=O)Nc3ccccc32)[nH]1` [SEMAXANIB]: the Activity was 10% in the experiment with Thoracic aorta [3] and 61% with Thoracic aorta [4].
For the molecule `Cc1cc(C)n2c1C=C(c1ccccc1F)C2=O`, in the experiment on HUVEC [1], the result was Active.
For `Cc1cc(C)n2c1C=C(c1cccc(Br)c1)C2=O`, the outcome in the experiment with HUVEC [1] was inactive.
On to `Cc1cc(C)n2c1C=C(c1ccccc1[N+](=O)[O-])C2=O`, for which the Activity in the experiment with Thoracic aorta [3] is reported as 4%; in the experiment with HUVEC [5] it was 74%; with HUVEC [1] it was 29.7%. In the experiment with Thoracic aorta [4], the result was inactive. In experiment [2], the IC50 came out at 32 µM.
Consider `Cc1ccccc1C1=Cc2c(C)cc(C)n2C1=O`, for which the outcome in the experiment with HUVEC [1] was Active.
